The source of these data is publication PMC9823088, “The oral selective estrogen receptor degrader GDC-0810 (ARN-810) in postmenopausal women with hormone receptor-positive HER2-negative (HR + /HER2 −) advanced/metastatic breast cancer” (Breast Cancer Research and Treatment, 2022).

Where only a bound is given, the exact number is not on record here.

One series relates to ERα. Also noted: method as in PMID 27410477. The following applies: MCF-7 breast cancer cell; cited from earlier work.
Series [1] concerns tamoxifen-resistant ER + breast cancer xenograft. The following applies: tamoxifen-resistant ER + breast cancer xenograft models; cited from earlier work.
The next series has as its system ER and Ki-67. Briefly: Paired tumor biopsies, ER protein levels and Ki-67. The note with it: after one cycle (28 days of treatment); samples from 3 patients only, no conclusions could be drawn. Type of series: in vivo, human. Here is the method:
CYP2B6 and CYP2C enzymes. No hormonal therapy, chemotherapy, immunotherapy, or experimental anti-cancer medications were permitted during the study.
Blood samples were collected for pharmacokinetic assessment on lead-in day −7 and cycle 2 day 1 (C2D1) at predose (0 hour) and postdose (0.5, 1, 1.5, 2, 3, 4, 6, 8, and 24 hours), (plus at 48 hours postdose for day−7). Full plasma pharmacokinetic profiles were obtained for GDC-0810 and its glucuronide metabolites (acyl-glucuronide and N-glucuronide) using a validated liquid chromatography/ tandem mass spectrometry method, and analyzed using non-compartmental methods for all patients in the dose escalation cohorts.
Tumor assessments were performed at screening and every 8 weeks from cycle-1, day-1 (C1D1). Radiographic assessment of objective tumor response or disease progression was based on Response Evaluation Criteria in Solid Tumors (RECIST v1.1). […] Imaging with [18F]-fluoroestradiol positron emission tomography (FES-PET) was performed to quantify ER expression in tumors and to assess for pharmacodynamic response. […]
In phase IIa cohort A1 patients, FES-PET scans were acquired at screening and on C3D3 at 18-24 hours post the C3D2 dose. […] The mean percent change from baseline in SUVmax (corrected for background activity) for up to five index lesions was calculated for each patient; more details are presented in (1). […]

A short description of series [2]: Study drug exposure (treatment duration). The note with it: phase Ia. Type of series: in vivo, human. The source says: Patients in all three study phases continued treatment until unacceptable toxicity, disease progression, or consent withdrawal. See Supplementary Methods for other study treatment details.
A further series concerns ER. Briefly: [18F]-fluoroestradiol PET (FES-PET) pharmacodynamic response. The class given is in vivo, human. Here is the method:
(§1) Blood samples were collected for pharmacokinetic assessments. Tumor assessments were performed at screening and every 8 weeks from cycle 1, day 1 (C1D1). Radiographic assessment of objective tumor response or disease progression was based on Response Evaluation Criteria in Solid Tumors (RECIST v1.1). Transvaginal ultrasound scans were performed to monitor endometrial thickness at screening, at every 6 months from C1D1, and at the end of treatment. Imaging with [^18F]-fluoroestradiol positron emission tomography (FES-PET) was performed to quantify ER expression in tumors and to assess for pharmacodynamic response. Further assessment details are provided in Supplementary Methods. […]
Tumor assessments were performed at screening and every 8 weeks from cycle-1, day-1 […]
Imaging with [18F]-fluoroestradiol positron emission tomography
(FES-PET) was performed to quantify ER expression in tumors and to assess for pharmacodynamic response. In phase Ia, FES-PET scans were acquired at screening and on C2D3 at 18-24 hours post the C2D2 dose. Scans were repeated during cycle 3 if the C2D3 scan […]
In phase IIa cohort A1 patients, FES-PET scans were acquired at screening and on C3D3 at 18-24 hours post the C3D2 dose. Scans were repeated at the time of progression if feasible. The mean percent change from baseline in SUVmax (corrected for background activity) for up to five index lesions was calculated for each patient; more details are presented in (1). Optional tumor biopsies were collected at baseline (screening)

Series [3] in a line: Endometrial thickness by transvaginal ultrasound. The class given is in vivo, human. How it is done: as §1
Tumor assessments were performed at screening and every 8 weeks from cycle-1, day-1 (C1D1). Radiographic assessment of objective tumor response or disease progression was based on Response Evaluation Criteria in Solid Tumors (RECIST v1.1). Transvaginal ultrasound scans were performed to monitor endometrial thickness at screening, at every 6 months from C1D1, and at the end of treatment. […]

Regarding `CC/C(=C(/c1ccc(/C=C/C(=O)O)cc1)c1ccc2[nH]ncc2c1)c1ccc(F)cc1Cl` [GDC-0810], the “proteasomal degradation of ERα” value in the series on ERα is on record as “induced proteasomal degradation of ERα”. Also, in the series on ERα, the “response of ER to estrogens” value is recorded as “fully antagonized”. The tumor regression result in series [1] is reported as “induced tumor regression”. Besides, the “ER and Ki-67 levels in tumor specimens” value with ER and Ki-67 was “reduced ER and Ki-67 levels”. Moreover, in series [2], the “patients remaining on study treatment for 2 years” value is given as “Two”. For the same molecule, in the series on ER (600 mg QD (fasting and non-fasting)), the “patients with complete or near-complete reduction in FES uptake” value is listed as not below 80%. Besides, in the series with ER (600-mg QD, fasting, and non-fasting, including tumors harboring ESR1 mutations), the “response rates by FES-PET” value is on record as 80–100%. Further, the “patients with complete or near complete (> 90%) suppression of FES uptake” value is 78% with ER (all patients who had FES-PET scans); 18 of 26 in the series on ER (patients with tumors harboring ESR1 mutations); 7 of 10 in the series with ER (phase IIa dose expansion, baseline and C3D3 scans); 24 of 30 in the series with ER (phase Ia, baseline and C2D3 scans). Besides, the FES reduction with ER (in vivo) was more than 90%. In addition, in the series with ER (phase Ia dose escalation, C2D3), the “patients with a single lesion considered FES-avid (SUVmax corrected > 1.5)” value is recorded as “two”. The “patients with an increase in the thickness of endometrium compared to baseline” value in series [3] (10 patients in phase Ia with baseline and at least one follow-up scan) was 9 (90%) n (%). Moreover, in series [3] (phase Ia), the “change in endometrial thickness, range” value lay within 0 to 11 mm. Also, the “mean change in endometrial thickness” value in series [3] (phase Ia) is on record as 4.4 mm. In addition, the “median change in endometrial thickness” value in series [3] (phase Ia) stood at 3.5 mm.
